SMILES strings stand for the structures.

Test [1] addresses T1, Toll-like receptor 7 (Homo sapiens, UniProt Q9NYK1).
T1 sequence (Q9NYK1 whole entry): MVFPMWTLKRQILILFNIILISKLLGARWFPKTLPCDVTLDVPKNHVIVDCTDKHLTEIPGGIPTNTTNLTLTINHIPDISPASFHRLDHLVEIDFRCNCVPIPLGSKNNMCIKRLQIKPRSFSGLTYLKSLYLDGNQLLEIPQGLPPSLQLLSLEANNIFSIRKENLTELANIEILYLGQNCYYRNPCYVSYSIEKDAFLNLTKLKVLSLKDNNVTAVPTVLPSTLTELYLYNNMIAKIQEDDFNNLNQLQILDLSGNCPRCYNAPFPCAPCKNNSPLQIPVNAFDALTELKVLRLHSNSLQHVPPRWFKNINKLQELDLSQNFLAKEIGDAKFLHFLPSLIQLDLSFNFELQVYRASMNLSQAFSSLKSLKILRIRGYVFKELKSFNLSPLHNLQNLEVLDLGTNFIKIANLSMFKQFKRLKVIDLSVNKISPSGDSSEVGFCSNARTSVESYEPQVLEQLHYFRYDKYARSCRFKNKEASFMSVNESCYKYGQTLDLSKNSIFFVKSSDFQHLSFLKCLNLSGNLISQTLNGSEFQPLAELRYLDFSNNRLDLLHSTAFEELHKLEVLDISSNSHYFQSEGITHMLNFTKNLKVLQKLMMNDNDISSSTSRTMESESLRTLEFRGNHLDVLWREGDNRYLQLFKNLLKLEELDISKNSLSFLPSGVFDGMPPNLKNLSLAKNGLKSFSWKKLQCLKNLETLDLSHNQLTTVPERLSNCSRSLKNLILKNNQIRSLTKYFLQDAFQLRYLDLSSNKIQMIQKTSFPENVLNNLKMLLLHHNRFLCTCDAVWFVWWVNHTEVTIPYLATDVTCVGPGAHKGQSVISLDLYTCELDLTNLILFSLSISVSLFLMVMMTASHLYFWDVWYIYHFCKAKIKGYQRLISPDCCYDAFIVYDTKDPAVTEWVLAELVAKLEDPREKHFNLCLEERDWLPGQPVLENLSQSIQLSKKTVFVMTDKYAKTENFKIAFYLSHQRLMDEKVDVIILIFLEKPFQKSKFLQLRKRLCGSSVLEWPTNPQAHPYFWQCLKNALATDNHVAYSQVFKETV
The test is described as follows: Agonist activity at human TLR7 in HEK-Blue hTLR7 cells assessed as activation of NFkappaB by SEAP reporter gene based spectrophotometry assay. It is filed as cell-based.

The target of test [2] is T2, Toll-like receptor 8 (Homo sapiens, UniProt Q9NR97).
T2 sequence (Q9NR97 whole entry): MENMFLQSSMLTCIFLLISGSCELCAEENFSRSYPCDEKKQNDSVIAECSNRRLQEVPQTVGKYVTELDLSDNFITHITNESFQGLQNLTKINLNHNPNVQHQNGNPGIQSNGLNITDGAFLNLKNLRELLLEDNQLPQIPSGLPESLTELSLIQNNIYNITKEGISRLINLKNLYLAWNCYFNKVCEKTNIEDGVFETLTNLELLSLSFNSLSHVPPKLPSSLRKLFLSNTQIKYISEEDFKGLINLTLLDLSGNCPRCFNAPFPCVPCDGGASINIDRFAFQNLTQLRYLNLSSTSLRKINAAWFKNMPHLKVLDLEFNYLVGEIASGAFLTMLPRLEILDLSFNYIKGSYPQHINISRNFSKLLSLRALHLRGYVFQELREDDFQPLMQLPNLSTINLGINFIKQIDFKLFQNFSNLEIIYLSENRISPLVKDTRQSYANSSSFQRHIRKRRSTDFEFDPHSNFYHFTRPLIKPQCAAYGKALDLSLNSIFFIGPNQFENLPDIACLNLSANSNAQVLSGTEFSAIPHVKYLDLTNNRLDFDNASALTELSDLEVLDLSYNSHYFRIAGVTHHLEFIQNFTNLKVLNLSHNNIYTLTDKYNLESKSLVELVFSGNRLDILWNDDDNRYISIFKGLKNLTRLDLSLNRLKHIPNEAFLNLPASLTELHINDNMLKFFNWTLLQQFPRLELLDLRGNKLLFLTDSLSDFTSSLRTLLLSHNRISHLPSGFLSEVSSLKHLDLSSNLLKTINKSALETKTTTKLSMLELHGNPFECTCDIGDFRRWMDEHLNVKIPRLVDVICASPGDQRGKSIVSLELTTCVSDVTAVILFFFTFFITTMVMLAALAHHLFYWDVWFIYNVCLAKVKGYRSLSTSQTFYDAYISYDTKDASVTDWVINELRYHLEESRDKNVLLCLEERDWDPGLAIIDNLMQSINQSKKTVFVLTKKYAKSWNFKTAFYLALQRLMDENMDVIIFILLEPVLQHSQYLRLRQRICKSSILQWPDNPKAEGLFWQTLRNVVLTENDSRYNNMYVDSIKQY
The test is described as follows: Agonist activity at human TLR8 in HEK-Blue hTLR8 cells assessed as activation of NFkappaB by SEAP reporter gene based spectrophotometry assay. The format is cell-based. The settings on record: hek-blue htlr8.

For test [3], the target named is T2, Toll-like receptor 8. The test is described as follows: Agonist activity at human TLR8 transfected in HEK293 cells assessed as induction of SEAP production incubated overnight. The format is cell-based.
In test [4] the target is T1, Toll-like receptor 7. The experiment in a line: Agonist activity at recombinant human TLR7 transfected in HEK293 cells assessed as induction of SEAP production incubated overnight by SEAP reporter gene based assay. It is filed as cell-based.
For test [5], the target named is T1, Toll-like receptor 7. The test is described as follows: Agonist activity at TLR7 (unknown origin).
In test [6] the target is T2, Toll-like receptor 8. The test is described as follows: Agonist activity at TLR8 (unknown origin).
Test [7] concerns the target T1, Toll-like receptor 7. The experiment in a line: Agonist activity at human TLR7 transfected in HEK293 cells assessed as induction of SEAP production incubated overnight by SEAP reporter gene based assay. The format is cell-based.
The nature of test [8]: Induction of IFN production in C3H/HeJ mouse splenocytes incubated for 18 hrs. The format is functional. The settings on record: Splenocyte, read-out: MEC.
Test [9] has as its target T2, Toll-like receptor 8. The test is described as follows: Agonist activity at human TLR8 (27 to 287 residues) in HEK-Blue hTLR8 cells assessed as induction of NFkappaB by SEAP reporter gene based spectrophotometry assay. The format is cell-based. (Reporter assays use an easily measured gene product as a stand-in for the process of interest.)

As for `CC[C@H](C)Cc1nc2c(N)nc3ccccc3c2s1`, the EC50 on Toll-like receptor 7 [1] (hek-blue htlr7) was 4.74 µM; on Toll-like receptor 8 [2], 2.51 µM.
Take `CCC[C@@H](CCO)Nc1nc(N)nc(C)c1Cc1ccc(CN(C)CC(N)=O)cc1OC`: the values for the EC50 at Toll-like receptor 8 [3] and at Toll-like receptor 7 [4] were over 10 µM and 0.055 µM, respectively.
For `CCCCc1nc2c(NC(=O)CCC)nc3ccccc3c2s1`, the EC50 at Toll-like receptor 7 [1] (hek-blue htlr7) worked out at 0.49 µM; at Toll-like receptor 8 [2] it was 0.42 µM.
On to `CCC[C@H](CCO)Nc1nc(N)nnc1OCc1nccc(OC)c1OC`, for which the EC50 was determined as 0.24 µM on Toll-like receptor 7 [5] and 0.56 µM on Toll-like receptor 8 [6].
In the case of `CCCC[C@H](CCO)Nc1nc(N)nnc1OC`, at Toll-like receptor 7 [5], the EC50 was 7.8 µM.
As for `CCc1nc2c(N)nc3ccccc3c2s1`, the EC50 at Toll-like receptor 7 [1] (hek-blue htlr7) was found to be 5.12 µM; on Toll-like receptor 8 [2], 0.81 µM.
As for `CCC[C@@H](CCO)Nc1nc(N)nc(C)c1Cc1ccc(CNCCO)cc1OC`, the values for the EC50 on Toll-like receptor 8 [3] and at Toll-like receptor 7 [4] were over 10 µM and 0.00977 µM, respectively.
On to `CCCc1nc2c(NC(=O)CCN=[N+]=[N-])nc3ccccc3c2s1`, for which the EC50 at Toll-like receptor 8 [2] was 2.23 µM.
Regarding `CCOC(=O)COc1ccc(CN(CCCn2c(CCOC)nc3c(N)nc4ccccc4c32)C(=O)CN(C)C)cc1`, at Toll-like receptor 7 [7], the EC50 turned out to be 0.172 µM.
For the compound `CCOC(=O)COc1cccc(CN(CCCn2c(CCOC)nc3c(N)nc4ccccc4c32)C(=O)CN(CC)CC)c1`, at Toll-like receptor 7 [7], the EC50 is 0.0546 µM.
`CCCc1nc2c(N)nc3ccc(N=[N+]=[N-])cc3c2s1`: the figures for the EC50 at Toll-like receptor 7 [1] (hek-blue htlr7) and on Toll-like receptor 8 [2] were 10.2 µM and 2.06 µM, respectively.
For `CCCCc1nc2c(N)nc(NCC3CCCCC3)cc2n1Cc1ccccc1`, on Toll-like receptor 7 [1], the EC50 was 0.32 µM.
With `CCCCc1nc(N)c2nc(O)n(Cc3ccccc3)c2n1`, the minimal effective concentration in test [8] was 0.03 µM.
Turning to `Nc1nc2ccccc2c2sc(CCCC(F)(F)F)nc12`, the figures for the concentration for a half-maximal effect (EC50) at Toll-like receptor 7 [1] (hek-blue htlr7) and at Toll-like receptor 8 [2] were 2.25 µM and 6.29 µM, respectively.
The compound `CCCCNc1nc(N)nnc1OCc1cccnc1` yielded a concentration for a half-maximal effect (EC50) at Toll-like receptor 7 [5] of 1.71 µM.
For `CCC[C@@H](CCO)Nc1nc(N)nc(C)c1Cc1ccc(CNC2CNC2)cc1OC`, the concentration for a half-maximal effect (EC50) at Toll-like receptor 8 [3] was over 10 µM; at Toll-like receptor 7 [4], 0.0195 µM.
As for `COCCc1nc2c(N)nc3ccccc3c2n1CCCCN(CCN(C)C)Cc1cccc(OCC(=O)OC(C)(C)C)c1`, the EC50 at Toll-like receptor 7 [7] came out at 0.0564 µM.
Take `CCCCc1nc2c(NC=O)nc3ccccc3c2s1`: the EC50 on Toll-like receptor 7 [1] (hek-blue htlr7) turned out to be 2.54 µM.
Turning to `CCC[C@@H](CCO)Nc1nc(N)nc(C)c1Cc1ccc(CNCC(N)=O)cc1OC`, the EC50 on Toll-like receptor 8 [3] is over 10 µM; on Toll-like receptor 7 [4] it was 0.0447 µM.
The matching figures for `CCC[C@@H](CO)Nc1nc(N)nc(C)c1Cc1ccc(CNC2CN(C)C2)cc1OC`: 6.17 µM and 0.155 µM.
For the compound `CCCCOc1nc(N)c2[nH]c(=O)n(Cc3ccccc3)c2n1`, the minimal effective concentration in [8] turned out to be 0.001 µM.
For `CCCCNc1nc(N)nnc1OCc1ccccc1`, the EC50 on Toll-like receptor 7 [5] is 2.94 µM; on Toll-like receptor 8 [6] it was 1.93 µM.
Consider `CC(C)c1nc2c(N)nc3ccccc3c2s1`, for which the results for the EC50 at Toll-like receptor 7 [1] (hek-blue htlr7) and at Toll-like receptor 8 [2] were 9.67 µM and 10.8 µM, respectively.
As to `CCCCCc1nc2c(N)nc3ccccc3c2s1`, the EC50 amounted to 4.14 µM at Toll-like receptor 7 [1] (hek-blue htlr7) and 1.94 µM at Toll-like receptor 8 [2].
Compound `CCCCNc1nc(N)nnc1OCCCc1ccccc1` returned an EC50 at Toll-like receptor 7 [5] of 2.94 µM.
As for `CCOc1cc2ccccc2nc1N`, the half-maximal effective concentration (EC50) at Toll-like receptor 8 [9] turned out to be 100 µM.
For `COCCc1nc2c(N)nc3ccccc3c2n1CCCCN(CCCN1CCOCC1)Cc1cccc(OCC(=O)OC(C)(C)C)c1`, the EC50 on Toll-like receptor 7 [7] was 0.114 µM.

Usually EC50 stands for the concentration at which the effect is half-maximal.

Values taken from ChEMBL document CHEMBL5244202, “Structural evolution of toll-like receptor 7/8 agonists from imidazoquinolines to imidazoles” (RSC Med Chem, 2021).
